Laboratory results from patent US8765785B2, “Solifenacin salts” (Crystal Pharma, S.A.U., priority 2010, dated 2014).
Where two headings read alike, the source gives them in different places.

Tests used:
Type in all cases: physicochemical
Solubility in water = experiment: Solubility in water
Method: Therefore, when the procedure to obtain tablets comprising solifenacin fumarate is carried out by wet granulation, the presence of water is not such an important factor.
However, the low solubility of the solifenacin fumarate avoids this problem. The difference in solubility also makes it easier to obtain solid pharmaceutical compositions of solifenacin fumarate since the drying phase is reduced.

[1] = Stability of the solid salt on standing (colour, UV-HPLC method 2)
Method: HPLC Method 2: To Follow the End Points of the Reactions Performed and the Rest of the Impurities:
(§1) 10 g of solifenacin succinate (example 2) were dissolved in 15 mL of water. The solution was frozen by nitrogen liquid and was placed in the freeze-drying equipment at −60° C. under vacuum.

[2] = Stability of tablets of solifenacin salts over 0, 3 and 6 months (Example 9); details: for DESCRIPTION: film-coated tablets (Example 8); for course of the amount of F1 impurity: 6 month period
Method: To test the stability of solifenacin fumarate, tablets are prepared by wet granulation following the procedure disclosed in US 2008/039516, the contents of which are incorporated in their entirety. A specific example of preparing a tablet containing solifenacin fumarate is given in […] below.
25 parts by weight of Hypromellose (Pharmacoat 603) are dissolved and agitated in 130 parts of purified water with an air motor stirrer (IMA) to prepare a binder solution (at a concentration of 20.0% (w/v)). Then, 50 parts of solifenacin salt, 389 parts of lactose monohydrate (Granulac) and 128 parts of corn starch (C*PharmGel 03406) are mixed together (pre-mix) in a single pot granulator (IMA Zanchetta 3 L capacity).
The binder solution is sprayed over the pre-mix at room temperature with a flow rate of 60 ml/min, impeller speed of 300 rpm and chopper speed of 1500 rpm for wet granulation. After spraying, kneading takes place for 3 min with impeller speed of 300 rpm. After granulation, the granules are dried at a charged temperature of the jacket bowl of 80° C. under vacuum conditions, tilting movement of the bowl of 90° and intermittent speed (120 rpm) of the impeller for 120 seconds.
The granules are dried until a final moisture of 2.5%-1.0% has been reached. 6 parts of magnesium stearate are added to the dried granules for blending with a biconic mixer (SAR Labortecnic). Thereafter, the resulting mixture is compressed with a rotary tabletting machine (KILIAN IMA Pressima) with 6.0 mm punches at a compression pressure sufficient to achieve a hardness of the tablet of more than 50 N and a tablet weight of 60 mg.
The resulting tablets are coated in a non perforated pan (IMA, type HT25). Coating is performed with a solution prepared by dissolving 20 parts of Opadry II pink (Colorcon) in 200 parts of purified water using an air motor stirrer (IMA). Coating is achieved at a charge air temperature of 60-80° C., a pan rotation velocity of 6-13 rpm, and coating fluid feed rate of 16-40 ml/min for a 3.3% ratio of the component to the tablet weight, to obtain the film-coated tablet.
The stability of tablets formulated with solifenacin succinate and solifenacin fumarate, respectively, was tested in a side-by-side comparison. […] For both salts the amount of solifenacin was assayed by HPLC at 0, 3 and 6 months and the amount of “F1 impurity” was also measured. The results are provided in the tables below and are illustrated in FIGS. 9 and 10.

[3] = Conversion of the crystalline salt to the amorphous form (lyophilization, vacuum evaporation; PXRD, DSC); details: for solid form after lyophilization of an aqueous solution: freeze-drying, -60° C. under vacuum, 15 hours, PXRD and DSC
Method: as §1
10 g of solifenacin fumarate (example 1) were dissolved in 600 ml of water at 60° C. The solution was frozen by nitrogen liquid and was placed in the freeze-drying equipment at −60° C. under vacuum.
5 g of solifenacin fumarate (example 1) was dissolved in 50 ml of methanol (1% of water) and evaporated under vacuum at 50° C.

Compound	DESCRIPTION ([2]; 3 MONTHS)	DESCRIPTION ([2]; 6 MONTHS)	DESCRIPTION ([2]; INITIAL)	ASSAY AMOUNT (amount of solifenacin by HPLC) ([2]; tablets, 3 MONTHS) [%]	CHROMATOGRAPHIC IMPURITY (F1 impurity) ([2]; tablets, 3 MONTHS) [%]	HARDNESS ([2]; tablets, 3 MONTHS) [N]	LOSS ON DRYING ([2]; tablets, 3 MONTHS) [%]	MEDIUM WEIGHT ([2]; tablets, 3 MONTHS) [mg]	ASSAY AMOUNT (amount of solifenacin by HPLC) ([2]; tablets, 6 MONTHS) [%]	CHROMATOGRAPHIC IMPURITY (F1 impurity) ([2]; tablets, 6 MONTHS) [%]	HARDNESS ([2]; tablets, 6 MONTHS) [N]	LOSS ON DRYING ([2]; tablets, 6 MONTHS) [%]	MEDIUM WEIGHT ([2]; tablets, 6 MONTHS) [mg]	course of the amount of F1 impurity ([2]; tablets)	ASSAY AMOUNT (amount of solifenacin by HPLC) ([2]; tablets, INITIAL) [%]	CHROMATOGRAPHIC IMPURITY (F1 impurity) ([2]; tablets, INITIAL) [%]	HARDNESS ([2]; tablets, INITIAL) [N]	LOSS ON DRYING ([2]; tablets, INITIAL) [%]	MEDIUM WEIGHT ([2]; tablets, INITIAL) [mg]	solid form after lyophilization of an aqueous solution [3]	also measured
solifenacin fumarate	pink biconvex	pink biconvex	pink biconvex	99.4	<0.05	73	2.01	124.21	99.6	<0.05	66	2.24	125.51	remains at the constant low level	98.2	<0.05	75	2.05	124.54	crystalline form	solubility in water (Solubility in water): 11.25 mg/mL; colouring / instability on standing ([1]; crystalline forms): do not have this problem; stability in tablets, conclusion in words ([2]; tablets, 6 month side-by-side comparison): much more stable than the succinate salt; solid form after lyophilization of an aqueous solution ([3]; listed as fumarate salt): remains crystalline; solid form after evaporation under vacuum ([3]; methanol (1% of water), evaporated under vacuum at 50° C.): crystalline form
O=C(O[C@H]1CN2CCC1CC2)N1CCc2ccccc2[C@@H]1c1ccccc1 [amorphous form of solifenacin succinate, solifenacin succinate]																					amount of new impurity with relative retention time 0.93 ([1]; left to stand for ten days, HPLC method 2): 0.14%; time until the white solid turned colored ([1]; solid on standing): 2 to 3 days; colour change of the white solid ([1]; three days after freeze-drying): turned brown-colored
O=C(O[C@H]1CN2CCC1CC2)N1CCc2ccccc2[C@@H]1c1ccccc1 [solifenacin succinate]	pink biconvex	pink biconvex	pink biconvex	96.8	<0.06	98	2.43	124.80	94.7	0.91	102	2.39	126.26	increases in the 6 month period	98.7	<0.05	98	2.40	125.57	quite easy to obtain the desired amorphous form	solubility (Solubility in water): 727 mg/mL; colouring / instability on standing [1]: do not have this problem
